The experiment relates to HIV. The experiment is described as follows: HIV MT4 Assay (antiviral HIV activity in MT-4 cells). In kind it is cell-based. Here is the method:
Antiviral HIV activity and cytotoxicity values for compounds of the invention from Table 1 were measured in parallel in the HTLV-1 transformed cell line MT-4 based on the method previously described (Hazen et al., 2007, In vitro antiviral activity of the novel, tyrosyl-based human immunodeficiency virus (HIV) type 1 protease inhibitor brecanavir (GW640385) in combination with other antiretrovirals and against a panel of protease inhibitor-resistant HIV (Hazen et al., “In vitro antiviral activity of the novel, tyrosyl-based human immunodeficiency virus (HIV) type 1 protease inhibitor brecanavir (GW640385) in combination with other antiretrovirals and against a panel of protease inhibitor-resistant HIV”, Antimicrob. Agents Chemother. 2007, 51: 3147-3154; and Pauwels et al., “Sensitive and rapid assay on MT-4 cells for the detection of antiviral compounds against the AIDS virus”, (J. of Virological Methods 1987, 16: 171-185).
Luciferase activity was measured 96 hours later by adding a cell titer glo (Promega, Madison, Wis.). Percent inhibition of cell protection data was plotted relative to no compound control. Under the same condition, cytotoxicity of the compounds was determined using cell titer Glo™ (Promega, Madison, Wis.). IC50s were determined from a 10 point dose response curve using 3-4-fold serial dilution for each compound, which spans a concentration range >1000 fold.
These values are plotted against the molar compound concentrations using the standard four parameter logistic equation: y=((Vmax*x^n)/(K^n+x^n))+Y^2
Y^2=minimum y n=slope factor
Vmax=maximum y x=compound concentration [M]

Setting [1] is: Human immunodeficiency virus 1, MT4, HTLV-1 transformed cell line MT-4, luciferase activity measured 96 hours later, Table 3, read-out: HIV MT4 Assay IC50.
Where [2] appears, read: MT4, 96 h, read-out: MT4 (IC50).

Molecules are shown by their SMILES. Where a name gives a salt, the structure may show the parent alone. Read-outs that look alike come from different tables or passages of the source.

Usually IC50 stands for the point on the concentration scale where inhibition reaches its midpoint.

As to `Cc1c(-c2c(C(OC(C)(C)C)C(=O)O)n(C)c(=O)c3c2ccn3Cc2ccc([N+](=O)[O-])cc2)ccc2c1CCCO2` (centres unmarked) [Example 47, 2-(tert-butoxy)-2-(6-methyl-4-(5-methylchroman-6-yl)-1-(4-nitrobenzyl)-7-oxo-6,7-dihydro-1H-pyrrolo[2,3-c]pyridin-5-yl)acetic acid], the IC50 is 40 nM under setting [1] and 40 nM under setting [2].

As to `Cc1c(-c2c(C(OC(C)(C)C)C(=O)O)n(C)c(=O)c3c2ccn3Cc2cc(F)ccc2F)ccc2c1CCCO2` (centres unmarked) [Example 48, 2-(tert-butoxy)-2-(1-(2,5-difluorobenzyl)-6-methyl-4-(5-methylchroman-6-yl)-7-oxo-6,7-dihydro-1H-pyrrolo[2,3-c]pyridin-5-yl)acetic acid], the half-maximal inhibitory concentration (IC50) is, setting by setting: under setting [1], 30 nM; under setting [2], 30 nM.

`Cc1ccc(Cn2ccc3c(-c4ccc5c(c4C)CCCO5)c(C(OC(C)(C)C)C(=O)O)n(C)c(=O)c32)cc1F` (centres unmarked) [Example 49, 2-(tert-butoxy)-2-(1-(3-fluoro-4-methylbenzyl)-6-methyl-4-(5-methylchroman-6-yl)-7-oxo-6,7-dihydro-1H-pyrrolo[2,3-c]pyridin-5-yl)acetic acid]: the IC50 amounted to 40 nM under setting [1] and 40 nM under setting [2].

With `Cc1c(-c2c(C(OC(C)(C)C)C(=O)O)n(C)c(=O)c3c2ccn3Cc2cscn2)ccc2c1CCCO2` (centres unmarked) [Example 50, 2-(tert-butoxy)-2-(6-methyl-4-(5-methylchroman-6-yl)-7-oxo-1-(thiazol-4-ylmethyl)-6,7-dihydro-1H-pyrrolo[2,3-c]pyridin-5-yl)acetic acid, Trifluoroacetic acid salt], the IC50 came out at 230 nM under setting [1] and 230 nM under setting [2].

As to `Cc1c(-c2c(C(OC(C)(C)C)C(=O)O)n(C)c(=O)c3c2ccn3CC2CCCCC2)ccc2c1CCCO2` (centres unmarked) [Example 51, 2-(tert-butoxy)-2-(1-(cyclohexylmethyl)-6-methyl-4-(5-methylchroman-6-yl)-7-oxo-6,7-dihydro-1H-pyrrolo[2,3-c]pyridin-5-yl)acetic acid], the IC50 is 100 nM under setting [1] and 100 nM under setting [2].

On to `Cc1c(-c2c(C(OC(C)(C)C)C(=O)O)n(C)c(=O)c3c2ccn3CC2CCOCC2)ccc2c1CCCO2` (centres unmarked) [Example 52, 2-(tert-butoxy)-2-(6-methyl-4-(5-methylchroman-6-yl)-7-oxo-1-((tetrahydro-2H-pyran-4-yl)methyl)-6,7-dihydro-1H-pyrrolo[2,3-c]pyridin-5-yl)acetic acid], for which the concentration for half-maximal inhibition (IC50) is, setting by setting: under setting [1], 350 nM; under setting [2], 350 nM.

For `Cc1c(-c2c(C(OC(C)(C)C)C(=O)O)n(C)c(=O)c3sc4c(c23)CCCC4)ccc2c1CCCO2` (centres unmarked) [Example 55, tert-Butoxy-[2-methyl-4-(5-methyl-chroman-6-yl)-1-oxo-1,2,5,6,7,8-hexahydro-benzo[4,5]thieno[2,3-c]pyridin-3-yl]-acetic acid], the IC50 worked out at 130 nM under setting [1] and 130 nM under setting [2].

Consider `Cc1ccc(-c2c(C(OC(C)(C)C)C(=O)O)n(C)c(=O)c3c2c2ccccc2n3Cc2ccc(F)cc2)cc1` (centres unmarked) [Example 56, 2-(tert-butoxy)-2-(9-(4-fluorobenzyl)-2-methyl-1-oxo-4-(p-tolyl)-2,9-dihydro-1H-pyrido[3,4-b]indol-3-yl)acetic acid], for which the 50% inhibitory concentration (IC50) is 740 nM under setting [1] and 740 nM under setting [2].

With `Cc1ccc(-c2c(C(OC(C)(C)C)C(=O)O)n(C)c(=O)c3c2c2ccccc2n3C)cc1` (centres unmarked) [Example 57, 2-(tert-butoxy)-2-(2,9-dimethyl-1-oxo-4-(p-tolyl)-2,9-dihydro-1H-pyrido[3,4-b]indol-3-yl)acetic acid], the IC50 under setting [1] was determined as 80 nM and the concentration for half-maximal inhibition (IC50) under setting [2] is 80 nM.

Consider `Cc1ccc(-c2c(C(OC(C)(C)C)C(=O)O)n(C)c(=O)c3c2c2c(n3Cc3ccc(F)cc3)CCOC2)cc1` (centres unmarked) [Example 58, 2-(tert-butoxy)-2-(5-(4-fluorobenzyl)-7-methyl-6-oxo-9-(p-tolyl)-1,3,4,5,6,7-hexahydropyrano[3′,4′:4,5]pyrrolo[2,3-c]pyridin-8-yl)acetic acid], for which the 50% inhibitory concentration (IC50) is, setting by setting: under setting [1], 750 nM; under setting [2], 750 nM.

On to `Cc1ccc(-c2c(C(OC(C)(C)C)C(=O)O)n(C)c(=O)c3c2c2c(n3Cc3ccc(F)cc3)CCCC2)cc1` (centres unmarked) [Example 59, 2-(tert-butoxy)-2-(9-(4-fluorobenzyl)-2-methyl-1-oxo-4-(p-tolyl)-2,5,6,7,8,9-hexahydro-1H-pyrido[3,4-b]indol-3-yl)acetic acid], for which the IC50 under setting [1] is 280 nM and the IC50 under setting [2] was determined as 280 nM.

Consider `Cc1ccc(-c2c(C(OC(C)(C)C)C(=O)O)n(C)c(=O)c3c2c2c(n3C)CCCC2)cc1` (centres unmarked) [Example 60, 2-(tert-butoxy)-2-(2,9-dimethyl-1-oxo-4-(p-tolyl)-2,5,6,7,8,9-hexahydro-1H-pyrido[3,4-b]indol-3-yl)acetic acid], for which the half-maximal inhibitory concentration (IC50) is 50 nM under setting [1] and 50 nM under setting [2].

With `COc1ccc(Cn2c3c(c4c(-c5ccc(C)cc5)c(C(OC(C)(C)C)C(=O)O)n(C)c(=O)c42)CCCC3)cc1` (centres unmarked) [Example 61, 2-(tert-butoxy)-2-(9-(4-methoxybenzyl)-2-methyl-1-oxo-4-(p-tolyl)-2,5,6,7,8,9-hexahydro-1H-pyrido[3,4-b]indol-3-yl)acetic acid], the concentration for half-maximal inhibition (IC50) is 100 nM under setting [1] and 100 nM under setting [2].

For `COc1ccc(Cn2c3c(c4c(-c5ccc6c(c5C)CCCO6)c(C(OC(C)(C)C)C(=O)O)n(C)c(=O)c42)CCCC3)cc1` (centres unmarked) [Example 62, 2-(tert-butoxy)-2-(9-(4-methoxybenzyl)-2-methyl-4-(5-methylchroman-6-yl)-1-oxo-2,5,6,7,8,9-hexahydro-1H-pyrido[3,4-b]indol-3-yl)acetic acid], the IC50 by setting is: under setting [1], 50 nM; under setting [2], 50 nM.

Regarding `COc1ccc(Cn2ncc3c(-c4ccc(C)c(C)c4)c(C(OC(C)(C)C)C(=O)O)n(C)c(=O)c32)cc1` (centres unmarked) [Example 63, 2-(tert-Butoxy)-2-(4-(3,4-dimethylphenyl)-1-(4-methoxybenzyl)-6-methyl-7-oxo-6,7-dihydro-1H-pyrazolo[3,4-c]pyridin-5-yl)acetic acid], the IC50 amounted to 1200 nM under setting [1] and 1200 nM under setting [2].

As for `Cc1ccc(-c2c(C(OC(C)(C)C)C(=O)O)n(C)c(=O)c3c2cnn3Cc2ccc(F)cc2)cc1` (centres unmarked) [Example 64, 2-(tert-Butoxy)-2-(1-(4-fluorobenzyl)-6-methyl-7-oxo-4-(p-tolyl)-6,7-dihydro-1H-pyrazolo[3,4-c]pyridin-5-yl)acetic acid], the IC50 under setting [1] is 180 nM and the IC50 under setting [2] was 180 nM.

Take `COc1ccc(Cn2ncc3c(-c4ccc5c(c4C)CCCO5)c(C(OC(C)(C)C)C(=O)O)n(C)c(=O)c32)cc1` (centres unmarked) [Example 65]: the 50% inhibitory concentration (IC50) is, setting by setting: under setting [1], 410 nM; under setting [2], 410 nM.

For `Cc1c(-c2c(C(OC(C)(C)C)C(=O)O)n(C)c(=O)c3c2cnn3Cc2ccccn2)ccc2c1CCCO2` (centres unmarked) [Example 66, 2-(tert-Butoxy)-2-(6-methyl-4-(5-methylchroman-6-yl)-7-oxo-1-(pyridin-2-ylmethyl)-6,7-dihydro-1H-pyrazolo[3,4-c]pyridin-5-yl)acetic acid], the IC50 under setting [1] worked out at 1360 nM and the half-inhibitory concentration (IC50) under setting [2] stood at 1360 nM.

As for `Cc1c(-c2c(C(OC(C)(C)C)C(=O)O)n(C)c(=O)c3c2cnn3Cc2ccc(F)cc2)ccc2c1CCCO2` (centres unmarked) [Example 67, 2-(tert-butoxy)-2-(1-(4-fluorobenzyl)-6-methyl-4-(5-methylchroman-6-yl)-7-oxo-6,7-dihydro-1H-pyrazolo[3,4-c]pyridin-5-yl)acetic acid], the IC50 is, setting by setting: under setting [1], 80 nM; under setting [2], 80 nM.

The values above are taken from patent US9012642B2, “Pyrrolopyridinone compounds and methods for treating HIV” (ViiV Healthcare UK Limited, priority 2011, dated 2015).
